This is an account of results in patent publication US20230107941A1, “HEPATITIS B CAPSID ASSEMBLY MODULATORS” (Venatorx Pharmaceuticals, Inc., priority 2019, published 2023).

The nature of data set [1]: In vitro cytotoxicity assay (MTT cell viability) in HepG2 cells. Type of data set: cell-based, human. Particulars: human. In short, it runs like this:
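CC50 was derived by 4-parameter fit of viability relative to vehicle controls, measured as MTT formazan absorbance at 492 nm after 3–4 h of reagent and DMSO solubilization. Before that, HepG2 cells seeded overnight at 20,000/well were incubated 7 days at 37°C with compound from 30 μM down to 1.0 nM in half-log steps.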

Data set [2] concerns HBV. Description: In vitro antiviral assay: anti-HBV replication in HepAD38 cells (extracellular HBV DNA by QPCR). Type of data set: cell-based, hepatitis B virus (genotype D, serotype ayw). To be noted: Hepatitis B virus, HePAD38, 168 h, 7 days incubation, extracellular HBV DNA by QPCR, read-out: Anti-HBV EC50. In short, it runs like this: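 Read-out is extracellular HBV DNA (copies/mL, QPCR standard curve) after 7-day exposure of tet-free HepAD38 cells to 10-fold dilutions from 1 μM down to 10 pM. Values normalised to DMSO vehicle; EC50 from 4-parameter nonlinear regression, with entecavir validating each run.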

On to `CCC1(NC(=O)C(=O)c2c(C)c(C(=O)Nc3ccc(F)c(C)c3)c(C)n2C)CCN(S(C)(=O)=O)CC1` [Example 42, 5-(2-((4-ethyl-1-(methylsulfonyl)piperidin-4-yl)amino)-2-oxoacetyl)-N-(4-fluoro-3-methylphenyl)-1,2,4-trimethyl-1H-pyrrole-3-carboxamide], for which, in data set [1], the 50% cytotoxic concentration (CC50) at 7 days is above 30000 nM. Further, the EC50 in data set [2] was below 50 nM.
In turn, `CCC1(NC(=O)C(=O)c2c(C)c(C(=O)Nc3ccc(F)c(C)c3)c(C)n2C)CCN(c2nccs2)CC1` [Example 43, 5-(2-((4-ethyl-1-(thiazol-2-yl)piperidin-4-yl)amino)-2-oxoacetyl)-N-(4-fluoro-3-methylphenyl)-1,2,4-trimethyl-1H-pyrrole-3-carboxamide] had a CC50 at 7 days in data set [1] of 5000 to 30000 nM. Further, the EC50 in data set [2] is below 50 nM.
Compound `CCC1(NC(=O)C(=O)c2c(C)c(C(=O)Nc3ccc(F)c(C)c3)c(C)n2C)CCN(c2cccnn2)CC1` [Example 44, 5-(2-((4-ethyl-1-(pyridazin-3-yl)piperidin-4-yl)amino)-2-oxoacetyl)-N-(4-fluoro-3-methylphenyl)-1,2,4-trimethyl-1H-pyrrole-3-carboxamide] registered a CC50 at 7 days in data set [1] above 30000 nM. In addition, the EC50 in data set [2] is below 50 nM.
`Cc1c(C(=O)Nc2ccc(B(O)O)cc2)c(C)n(C)c1C(=O)C(=O)NC(C)(C)C` [Example 45, (4-(5-(2-(tert-butylamino)-2-oxoacetyl)-1,2,4-trimethyl-1H-pyrrole-3-carboxamido)phenyl)boronic acid] displayed a half-maximal cytotoxic concentration (CC50) at 7 days in data set [1] above 30000 nM. For the same compound, in data set [2], the concentration giving a half-maximal response (EC50) is 500 to 1000 nM.
As for `Cc1c(C(=O)Nc2cccc(B(O)O)c2)c(C)n(C)c1C(=O)C(=O)NC(C)(C)C` [Example 46, (3-(5-(2-(tert-butylamino)-2-oxoacetyl)-1,2,4-trimethyl-1H-pyrrole-3-carboxamido)phenyl)boronic acid], the CC50 at 7 days in data set [1] is above 30000 nM. Moreover, in data set [2], the EC50 is 500 to 1000 nM.
On the same counts, the results for `Cc1csc(C2(NC(=O)c3c(C)c(C(=O)C(=O)NC(C)(C)C)n(C)c3C)CCCC2)n1` [Example 47, 5-(2-(tert-butylamino)-2-oxoacetyl)-1,2,4-trimethyl-N-(1-(4-methylthiazol-2-yl)cyclopentyl)-1H-pyrrole-3-carboxamide] are above 30000 nM and above 1000 nM.
On the same counts, the results for `Cc1c(C(=O)NC2COCCOC2)c(C)n(C)c1C(=O)C(=O)NC(C)(C)C` [Example 48, 5-(2-(tert-butylamino)-2-oxoacetyl)-N-(1,4-dioxepan-6-yl)-1,2,4-trimethyl-1H-pyrrole-3-carboxamide] are above 30000 nM and above 1000 nM.
On the same counts, the results for `Cc1cc(NC(=O)c2c(C)c(C(=O)C(=O)NC3(C)CCCN(C(=O)Nc4ccc(F)c(F)c4)C3)n(C)c2C)ccc1F` (stereo not shown) [Example 49, N-(3,4-difluorophenyl)-3-(2-(4-((4-fluoro-3-methylphenyl)carbamoyl)-1,3,5-trimethyl-1H-pyrrol-2-yl)-2-oxoacetamido)-3-methylpiperidine-1-carboxamide] are above 30000 nM and 50 to 499 nM.
For the compound `CCC1(NC(=O)C(=O)c2c(C)c(C(=O)Nc3ccc(F)c(C)c3)c(C)n2C)CCN(c2cnccn2)CC1` [Example 50, 5-(2-((4-ethyl-1-(pyrazin-2-yl)piperidin-4-yl)amino)-2-oxoacetyl)-N-(4-fluoro-3-methylphenyl)-1,2,4-trimethyl-1H-pyrrole-3-carboxamide], in data set [1], the CC50 at 7 days was above 30000 nM. In addition, in data set [2], the EC50 was below 50 nM.
In turn, `Cc1c(C(=O)Nc2cc(Cl)nc(Cl)c2)c(C)n(C)c1C(=O)C(=O)N[C@H](C)C(F)(F)F` [Example 51, (R)-N-(2,6-dichloropyridin-4-yl)-1,2,4-trimethyl-5-(2-oxo-2-((1,1,1-trifluoropropan-2-yl)amino)acetyl)-1H-pyrrole-3-carboxamide] returned a CC50 at 7 days in data set [1] above 30000 nM. Moreover, in data set [2], the concentration giving a half-maximal response (EC50) was below 50 nM.
As for `Cc1cc(NC(=O)c2c(C)c(C(=O)C(=O)Nc3ccccc3N3CCOCC3)n(C)c2C)ccc1F` [Example 52, N-(4-fluoro-3-methylphenyl)-1,2,4-trimethyl-5-(2-((2-morpholinophenyl)amino)-2-oxoacetyl)-1H-pyrrole-3-carboxamide], in data set [1], the CC50 at 7 days was 5000 to 30000 nM. In addition, the EC50 in data set [2] was in the range of 50 to 499 nM.
Turning to `Cc1cc(NC(=O)c2c(C)c(C(=O)C(=O)Nc3cccnc3N3CCOCC3)n(C)c2C)ccc1F` [Example 53, N-(4-fluoro-3-methylphenyl)-1,2,4-trimethyl-5-(2-((2-morpholinopyridin-3-yl)amino)-2-oxoacetyl)-1H-pyrrole-3-carboxamide], the CC50 at 7 days in data set [1] is above 30000 nM. Further, the EC50 in data set [2] is below 50 nM.
Compound `Cc1cc(NC(=O)c2c(C)c(C(=O)C(=O)Nc3ccncc3N3CCOCC3)n(C)c2C)ccc1F` [Example 54, N-(4-fluoro-3-methylphenyl)-1,2,4-trimethyl-5-(2-((3-morpholinopyridin-4-yl)amino)-2-oxoacetyl)-1H-pyrrole-3-carboxamide] yielded a CC50 at 7 days in data set [1] above 30000 nM. In data set [2], the EC50 lay within 500 to 1000 nM.
For `COC(=O)c1cc(NC(=O)c2c(C)c(C(=O)C(=O)NC(C)(C)C)n(C)c2C)ccc1F` [Example 55, methyl 5-(5-(2-(tert-butylamino)-2-oxoacetyl)-1,2,4-trimethyl-1H-pyrrole-3-carboxamido)-2-fluorobenzoate] the same measures were above 30000 nM and above 1000 nM.
Regarding `Cc1c(C(=O)Nc2ccc(F)c(C(=O)O)c2)c(C)n(C)c1C(=O)C(=O)NC(C)(C)C` [Example 56, 5-(5-(2-(tert-butylamino)-2-oxoacetyl)-1,2,4-trimethyl-1H-pyrrole-3-carboxamido)-2-fluorobenzoic acid], the CC50 at 7 days in data set [1] was above 30000 nM. The EC50 in data set [2] lay within 500 to 1000 nM.
In the case of `Cc1c(C(=O)Nc2ccc(F)c(C(N)=O)c2)c(C)n(C)c1C(=O)C(=O)NC(C)(C)C` [Example 57, 5-(2-(tert-butylamino)-2-oxoacetyl)-N-(3-carbamoyl-4-fluorophenyl)-1,2,4-trimethyl-1H-pyrrole-3-carboxamide], the CC50 at 7 days in data set [1] is above 30000 nM. Moreover, the EC50 in data set [2] was above 1000 nM.
As to `Cc1c(C(=O)NCc2noc(C(F)(F)F)n2)c(C)n(C)c1C(=O)C(=O)NC(C)(C)C` [Example 58, 5-(2-(tert-butylamino)-2-oxoacetyl)-1,2,4-trimethyl-N-((5-(trifluoromethyl)-1,2,4-oxadiazol-3-yl)methyl)-1H-pyrrole-3-carboxamide], in data set [1], the 50% cytotoxic concentration (CC50) at 7 days was above 30000 nM. Besides, in data set [2], the EC50 is above 1000 nM.
Take `Cc1c(C(=O)Nc2ccc(F)c(C#N)c2)c(C)n(C)c1C(=O)C(=O)NC(C)(C)C` [Example 59, 5-(2-(tert-butylamino)-2-oxoacetyl)-N-(3-cyano-4-fluorophenyl)-1,2,4-trimethyl-1H-pyrrole-3-carboxamide]: the CC50 at 7 days in data set [1] is above 30000 nM. Also, the EC50 in data set [2] was below 50 nM.
`Cc1c(C(=O)Nc2ccc(F)c(Br)c2)c(C)n(C)c1C(=O)C(=O)NC(C)(C)C` [Example 60, N-(3-bromo-4-fluorophenyl)-5-(2-(tert-butylamino)-2-oxoacetyl)-1,2,4-trimethyl-1H-pyrrole-3-carboxamide] registered a CC50 at 7 days in data set [1] above 30000 nM. Moreover, in data set [2], the EC50 was below 50 nM.
The compound `Cc1c(C(=O)N2CCC(C)(O)CC2)c(C)n(C)c1C(=O)C(=O)NC(C)(C)C` [Example 61, N-(tert-butyl)-2-(4-(4-hydroxy-4-methylpiperidine-1-carbonyl)-1,3,5-trimethyl-1H-pyrrol-2-yl)-2-oxoacetamide] gave a 50% cytotoxic concentration (CC50) at 7 days in data set [1] above 30000 nM. The EC50 in data set [2] was 500 to 1000 nM.

As usually defined, the CC50 is the concentration that lowers cell viability or growth by half. Lower therefore signals harm at low concentration. What is called EC50 is the concentration that produces a half-maximal response.
